# Data from publication PMC9177597, “Structural basis of substrate recognition and translocation by human very long-chain fatty acid transporter ABCD1” (Nature Communications, 2022).
# pEC50: −log10 of the molar value.
# Legend:
# [1] = molecular target: T1, chABCD1 (chimeric ABCD1) (Homo sapiens, UniProt P33897); test: ATPase assay (colorimetric Pi release); type: biochemical; conditions: varying ATP, with or without C22:0-CoA, 2 mM MgCl2, LMNG + CHS, pH 7.5, 37 °C; Michaelis-Menten fit
# T1 construct: single polypeptide: N-terminal FLAG tag, PMP-4 residues 1-65 replacing human ABCD1 residues 1-63, then human ABCD1 64-745; HEK293F; homodimer; LMNG/CHS for assays, digitonin for cryo-EM; with PMP-4 (peroxisomal membrane protein related, ABCD1 homolog, Caenorhabditis elegans; N-terminal segment fused to the target chain)
# T1 sequence (P33897 64-745): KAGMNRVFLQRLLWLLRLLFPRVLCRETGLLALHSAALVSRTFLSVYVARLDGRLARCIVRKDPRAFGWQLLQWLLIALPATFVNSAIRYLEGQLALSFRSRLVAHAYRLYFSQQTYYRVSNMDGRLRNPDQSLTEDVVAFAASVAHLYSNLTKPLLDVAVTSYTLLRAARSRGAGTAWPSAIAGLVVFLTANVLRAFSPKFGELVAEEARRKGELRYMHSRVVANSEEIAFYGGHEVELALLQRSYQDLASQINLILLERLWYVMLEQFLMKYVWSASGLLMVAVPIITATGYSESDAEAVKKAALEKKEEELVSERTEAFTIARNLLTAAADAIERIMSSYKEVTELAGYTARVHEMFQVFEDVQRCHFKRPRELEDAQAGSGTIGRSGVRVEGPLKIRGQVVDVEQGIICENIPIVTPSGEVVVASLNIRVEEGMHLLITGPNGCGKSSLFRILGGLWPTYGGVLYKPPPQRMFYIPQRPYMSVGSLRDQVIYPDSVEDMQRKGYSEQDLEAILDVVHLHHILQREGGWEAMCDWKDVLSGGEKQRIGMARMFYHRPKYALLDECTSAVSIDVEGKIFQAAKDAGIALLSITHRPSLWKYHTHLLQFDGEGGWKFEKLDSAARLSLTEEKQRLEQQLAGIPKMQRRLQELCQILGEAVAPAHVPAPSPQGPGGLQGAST
# [2] = molecular target: T1, chABCD1 (chimeric ABCD1); test: substrate-stimulated ATPase assay (colorimetric Pi release); type: biochemical
# [3] = molecular target: chimeric ABCD1, C-terminal helix truncated variant (ΔGlu694-Thr745) (Caenorhabditis elegans | human) (UniProt O45730)
Compound,pEC50 [2],other results
Nc1ncnc2c1ncn2[C@@H]1O[C@H](COP(=O)(O)OP(=O)(O)OP(=O)(O)O)[C@@H](O)[C@H]1O [ATP],–,Km [1]: The data points were fitted with a Michaelis-Menten equation
CCCCCCCCCCCCCCCCCCCCCCCC(=O)SCCNC(=O)CCNC(=O)[C@H](O)C(C)(C)COP(=O)(O)OP(=O)(O)OC[C@H]1O[C@@H](n2cnc3c(N)ncnc32)[C@H](O)[C@@H]1OP(=O)(O)O [C24:0-CoA],~5.70,–
CCCCCCCCCCCCCCCCCCCCCCCCCC(=O)SCCNC(=O)CCNC(=O)[C@H](O)C(C)(C)COP(=O)(O)OP(=O)(O)OC[C@H]1O[C@@H](n2cnc3c(N)ncnc32)[C@H](O)[C@@H]1OP(=O)(O)O [C26:0-CoA],~5.70,–
"chimeric ABCD1, C-terminal helix truncated variant (ΔGlu694-Thr745) (from UniProt O45730 1-65; P33897 64-693)",–,"Vmax of C22:0-CoA-stimulated ATPase activity (LMNG + CHS, 2 mM ATP) (mol Pi/min/mol protein) [3]: 17.5"
